This passage reports IC50 and EC50 results from ChEMBL document CHEMBL1177723, “Severe acute respiratory syndrome coronavirus papain-like novel protease inhibitors: design, synthesis, protein-ligand X-ray structure and biological evaluation” (J Med Chem, 2010).

The nature of test [1]: Inhibition of SARS coronavirus papain-like protease expressed in Escherichia coli. On the set-up: species or system Severe acute respiratory syndrome-related coronavirus.
The test system of a further test is SARS-CoV. Description: Antiviral activity against SARS coronavirus infected in african green monkey Vero E6 cells assessed as inhibition of viral replication after 48 hrs by luminescence assay. The format is functional, organism-based, Severe acute respiratory syndrome-related coronavirus. To be noted: for pEC50: Severe acute respiratory syndrome-related coronavirus, Vero, 48 h, read-out: EC50.

pEC50, pIC50: −log10 of the molar value.

`CC(C)(c1cccc2ccccc12)N1CCC(C(=O)NCc2ccc3c(c2)OCO3)CC1` showed a pIC50 in test [1] below 3.70.
Regarding `COc1ccccc1CNC(=O)C1CCN([C@H](C)c2cccc3ccccc23)CC1`, the pEC50 in the test with SARS-CoV was 4.94. In test [1], this molecule showed a pIC50 of 5.92.
For the molecule `C[C@@H](c1cccc2ccccc12)N1CCC(C(=O)NCc2ccc3c(c2)OCO3)CC1`, in the test on SARS-CoV, the pEC50 is 5.04. This molecule showed a pIC50 in test [1] of 6.25.
In test [1], `O=C(NCc1ccc2c(c1)OCO2)C1CCN(Cc2ccc3ccccc3c2)CC1` showed a pIC50 of 4.00.
The same measure, in the same setting: the figure for `O=C(NCc1ccc2c(c1)OCO2)C1CCN(Cc2cccc3ccccc23)CC1` is 4.35.
For the molecule `COc1cccc(CNC(=O)C2CCN([C@H](C)c3cccc4ccccc34)CC2)c1`, the pEC50 with SARS-CoV was 5.01. This molecule had a pIC50 in test [1] of 6.47.
On the same counts, the results for `COc1ccc(CNC(=O)C2CCN([C@H](C)c3cccc4ccccc34)CC2)cc1` are 4.99 and 6.47.
On to `C[C@H](c1cccc2ccccc12)N1CCC(C(=O)NCc2ccc3c(c2)OCO3)CC1`, for which the pEC50 with SARS-CoV was 5.04.
For `COc1ccc(CNC(=O)C2CCN(Cc3cccc4ccccc34)CC2)cc1`, the EC50 entry in the test with SARS-CoV (vero) was “Not Active”. Besides, the pIC50 in test [1] is 4.23.
Turning to `COc1ccccc1CNC(=O)C1CCN(Cc2cccc3ccccc23)CC1`, in test [1], the pIC50 is 3.94.
Same read-out and setting: the result for `COc1cccc(CNC(=O)C2CCN(Cc3cccc4ccccc34)CC2)c1` reads 4.52.
As to `COc1cccc(CNC(=O)C2CCN([C@@H](C)c3ccc4ccccc4c3)CC2)c1`, in the test on SARS-CoV, the pEC50 is below 4.60. In test [1], the pIC50 is 5.24.
In turn, `COc1cccc(CNC(=O)C2CCN([C@H](C)c3ccc4ccccc4c3)CC2)c1` had a pIC50 in test [1] of 4.88.
On the same count and under the same terms, the figure for `COc1ccccc1CNC(=O)C1CCN([C@H](C)c2ccc3ccccc3c2)CC1` is 4.46; for `COc1ccc(CNC(=O)C2CCN(C(C)c3ccc4ccccc4c3)CC2)cc1` (racemic) it is below 4.00.

What is called pIC50 is −log10 of the IC50, conventionally taken in molar units. In general, pEC50 refers to the EC50 on a negative log10 scale, so that one unit is a factor of ten.
